According to US20230242530A1, “8-(AZETIDIN-1-YL)-[1,2,4]TRIAZOLO[1,5-A]PYRIDINYL COMPOUNDS, COMPOSITIONS AND METHODS OF USE THEREOF” (Genentech, Inc., priority 2016, published 2023):

How the values were obtained:
[1] = target: T1, isolated recombinant JAK1 kinase domain (Homo sapiens, UniProt P23458); assay: JAK enzyme assay, JAK1 kinase domain (Caliper LabChip); assay type: biochemical; conditions: 1.5 nM JAK1, ATP 25 μM, Morrison tight binding model
T1 construct: isolated recombinant JAK1 and JAK2 kinase domain
How it was run: (§1)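 Ki values were obtained by Morrison tight-binding analysis with ATP-competitive correction, Ki=Ki,app/(1+[ATP]/Km,app). Phosphorylated versus total fluorescent JAK3-derived peptide was quantified on a Caliper LabChip. Kinase reactions with the isolated recombinant domains ran 30 min at 22 °C before EDTA quench (50 mM final).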

[2] = target: T2, isolated recombinant JAK2 kinase domain (Homo sapiens, UniProt O60674); assay: JAK enzyme assay, JAK2 kinase domain (Caliper LabChip); assay type: biochemical; conditions: 0.2 nM JAK2, ATP 25 μM, Morrison tight binding model
T2 construct: isolated recombinant JAK1 and JAK2 kinase domain
How it was run: as §1

[3] = test system: JAK1-dependent STAT6 phosphorylation downstream of IL-13 stimulation in BEAS-2B cells; assay: JAK1 pathway assay in cell lines: IL-13 p-STAT6 BEAS-2B; assay type: cell-based; conditions: BEAS-2B human bronchial epithelial cells, 1 hr compound, IL-13 15 min, MSD readout
How it was run: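 Phospho-STAT6 read by MSD electrochemiluminescence in lysates of BEAS-2B cells kept in complete growth medium. Cells were pretreated 1 hr at 37 °C with compound (0.2% DMSO final) and stimulated 15 min with IL-13 at its EC90; EC50 is the concentration halving signal versus DMSO.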

T1 sequence (P23458 875-1153 limits assumed): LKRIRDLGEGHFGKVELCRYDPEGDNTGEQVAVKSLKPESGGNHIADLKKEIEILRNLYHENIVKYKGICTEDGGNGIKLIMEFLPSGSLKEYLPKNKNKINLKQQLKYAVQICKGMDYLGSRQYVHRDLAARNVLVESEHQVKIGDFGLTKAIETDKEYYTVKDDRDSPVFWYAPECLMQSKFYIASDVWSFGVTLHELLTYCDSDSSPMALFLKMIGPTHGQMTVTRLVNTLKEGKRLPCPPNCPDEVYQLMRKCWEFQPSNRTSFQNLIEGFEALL
T2 sequence (O60674 849-1124 limits assumed): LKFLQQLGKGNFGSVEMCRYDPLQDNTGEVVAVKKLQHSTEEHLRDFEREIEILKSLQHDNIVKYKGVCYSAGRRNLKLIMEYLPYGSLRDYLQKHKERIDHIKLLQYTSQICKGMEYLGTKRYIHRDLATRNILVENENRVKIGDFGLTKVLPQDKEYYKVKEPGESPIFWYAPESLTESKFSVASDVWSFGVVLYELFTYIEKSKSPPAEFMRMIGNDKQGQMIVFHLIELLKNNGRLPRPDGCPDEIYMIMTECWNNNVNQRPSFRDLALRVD

| Ki [1] [nM] | Ki [2] [nM] | SMILES | EC50 [3] [nM] |
| --- | --- | --- | --- |
| 0.5 | 0.4 | CN(CC1(C#N)CC1)C1CCN(C(=O)Cn2cc(Nc3nc4c(N5CC(CC#N)(n6cc(C(F)(F)F)cn6)C5)cccn4n3)cn2)CC1 [Example 109, 1-[[[1-[2-[4-[[8-[3-(cyanomethyl)-3-[4-(trifluoromethyl)pyrazol-1-yl]azetidin-1-yl]-[1,2,4]triazolo[1,5-a]pyridin-2-yl]amino]pyrazol-1-yl]acetyl]-4-piperidyl]-methyl-amino]methyl]cyclopropane carbonitrile] | 58 |
| 0.4 | 0.9 | CCc1cnn(C2(CC#N)CN(c3cccn4nc(Nc5ccc(C(=O)N6CCN(C)CC6)c(F)c5)nc34)C2)c1 [Example 91, 2-[3-(4-ethylpyrazol-1-yl)-1-[2-[3-fluoro-4-(4-methylpiperazine-1-carbonyl)anilino]-[1,2,4]triazolo[1,5-a]pyridin-8-yl]azetidin-3-yl]acetonitrile] | 213 |
| 2.3 | 10.5 | CC(C)c1cnn(C2(CC#N)CN(c3cccn4nc(Nc5cnn(CC(=O)N6CCN(C)CC6)c5)nc34)C2)c1 [Example 56, formic acid;2-[3-(4-isopropyipyrazol-1-yl)-1-[2-[[1-[2-(4-methylpiperazin-1-yl)-2-oxo-ethyl]pyrazol-4-yl]amino]-[1,2,4]triazolo[1,5-a]pyridin-8-yl]azetidin-3-yl]acetonitrile] | 319 |
| 0.4 | 1 | CCc1cnn(C2(CC#N)CN(c3cccn4nc(Nc5ccc(C(=O)N(C)CC6CCN(C7COC7)CC6)cc5)nc34)C2)c1 [Example 88, 4-[[8-[3-(cyanomethyl)-3-(4-ethylpyrazol-1-yl)azetidin-1-yl]-[1,2,4]triazolo[1,5-a]pyridin-2-yl]amino]-N-methyl-N-[[1-(oxetan-3-yl)-4-piperidyl]methyl]benzamide] | 35 |
| 0.8 | 2 | CCc1cnn(C2(CC#N)CN(c3cccn4nc(Nc5cnn(CC(=O)N6CCN(C)CC6)c5)nc34)C2)c1 [Example 1, 2-[3-(4-ethyl-1H-pyrazol-1-yl)-1-[2-([1-[2-(4-methylpiperazin-1-yl)-2-oxoethyl]-1H-pyrazol-4-yl]amino)-[1,2,4]triazolo[1,5-a]pyridin-8-yl]azetidin-3-yl]acetonitrile] | 29 |
| 1.6 | 5.3 | CN1CCN(C(=O)Cn2cc(Nc3nc4c(N5CC(CC#N)(N6CCC(C#N)CC6)C5)cccn4n3)cn2)CC1 [Example 13, 1-[3-(cyanomethyl)-1-[2-[[1-[2-(4-methylpiperazin-1-yl)-2-oxo-ethyl]pyrazol-4-yl]amino]-[1,2,4]triazolo[1,5-a]pyridin-8-yl]azetidin-3-yl]piperidine-4-carbonitrile] | 82 |
| 0.6 | 0.4 | CN(CC(C)(C)C#N)C1CCN(C(=O)Cn2cc(Nc3nc4c(N5CC(CC#N)(n6cc(C(F)(F)F)cn6)C5)cccn4n3)cn2)CC1 [Example 108, 3-[[1-[2-[4-[[8-[3-(cyanomethyl)-3-[4-(trifluoromethyl)pyrazol-1-yl]azetidin-1-yl]-[1,2,4]triazolo[1,5-a]pyridin-2-yl]amino]pyrazol-1-yl]acetyl]-4-piperidyl]-methyl-amino]-2,2-dimethyl-propanenitrile;formic acid] | 37 |
| 1.2 | 9.6 | CN1CCN(C(=O)Cn2cc(Nc3nc4c(N5CC(CC#N)(n6cc(CO)cn6)C5)cccn4n3)cn2)CC1 [Example 20, 2-[3-[4-(hydroxymethyl)pyrazol-1-yl]-1-[2-[[1-[2-(4-methylpiperazin-1-yl)-2-oxo-ethyl]pyrazol-4-yl]amino]-[1,2,4]triazolo[1,5-a]pyridin-8-yl]azetidin-3-yl]acetonitrile] | > 1000 |
| 0.3 | 1.3 | Cc1ccccc1-c1cnn(C2(CC#N)CN(c3cccn4nc(Nc5cnn(CC(=O)N6CCC(N7CCOCC7)CC6)c5)nc34)C2)c1 [Example 123] | 87 |
| 0.5 | 2.9 | CCc1cnn(C2(CC#N)CN(c3cccn4nc(Nc5ccc(C(=O)N6CCN(C7CCOCC7)CC6)cc5)nc34)C2)c1 [Example 37, 2-[3-(4-ethylpyrazol-1-yl)-1-[2-[4-(4-tetrahydropyran-4-ylpiperazine-1-carbonyl)anilino]-[1,2,4]triazolo[1,5-a]pyridin-8-yl]azetidin-3-yl]acetonitrile] | 23 |
| 0.4 | 1 | COCCN1CCN(C(=O)Cn2cc(Nc3nc4c(N5CC(CC#N)(c6cccc(Cl)c6)C5)cccn4n3)cn2)CC1 [Example 81, 2-[3-(3-chlorophenyl)-1-[2-[[1-[2-[4-(2-methoxyethyl)piperazin-1-yl]-2-oxo-ethyl]pyrazol-4-yl]amino]-[1,2,4]triazolo[1,5-a]pyridin-8-yl]azetidin-3-yl]acetonitrile] | 27 |
| 1 | 5.7 | CN1CCN(C(=O)Cn2cc(Nc3nc4c(N5CC(CC#N)(n6cc(C7CCCCC7)cn6)C5)cccn4n3)cn2)CC1 [Example 55] | 137 |
| 0.4 | 2 | CCc1cnn(C2(CC#N)CN(c3cccn4nc(Nc5cccc(C(=O)N6CCN(C)CC6)c5)nc34)C2)c1 [Example 75, 2-[3-(4-ethylpyrazol-1-yl)-1-[2-[3-(4-methylpiperazine-1-carbonyl)anilino]-[1,2,4]triazolo[1,5-a]pyridin-8-yl]azetidin-3-yl]acetonitrile] | 26 |
| 0.3 | 0.3 | CCc1cnn(C2(CC#N)CN(c3cccn4nc(Nc5ccc(C(=O)N(C)CC6CCN(C)CC6)cc5)nc34)C2)c1 [Example 84, 4-[[8-[3-(cyanomethyl)-3-(4-ethylpyrazol-1-yl)azetidin-1-yl]-[1,2,4]triazolo[1,5-a]pyridin-2-yl]amino]-N-methyl-N-[(l-methyl-4-piperidyl)methyl]benzamide] | 16 |
| 0.3 | 0.1 | CN1CCN(C(=O)Cn2cc(Nc3nc4c(N5CC(CC#N)(n6cc(NCC(F)(F)F)cn6)C5)cccn4n3)cn2)CC1 [Example 104] | 22 |
| 0.6 | 0.6 | N#CCC1(c2cccc(Cl)c2)CN(c2cccn3nc(Nc4cnn(CC(=O)N5CCC(N6CCOCC6)CC5)c4)nc23)C1 [Example 72, 2-[3-(3-chlorophenyl)-1-[2-[[1-[2-(4-morpholino-1-piperidyl)-2-oxo-ethyl]pyrazol-4-yl]amino]-[1,2,4]triazolo[1,5-a]pyridin-8-yl]azetidin-3-yl]acetonitrile] | 24 |
| 0.3 | 0.7 | CSc1cc(C2(CC#N)CN(c3cccn4nc(Nc5cnn(CC(=O)N6CCN(C)CC6)c5)nc34)C2)ccc1F [Example 79, 2-[3-(4-fluoro-3-methylsulfanyl-phenyl)-1-[2-[[1-[2-(4-methylpiperazin-1-yl)-2-oxo-ethyl]pyrazol-4-yl]amino]-[1,2,4]triazolo[1,5-a]pyridin-8-yl]azetidin-3-yl]acetonitrile] | 16 |
| 0.3 | 0.2 | CN1CCN(C(=O)Cn2cc(Nc3nc4c(N5CC(CC#N)(n6cc(CCF)cn6)C5)cccn4n3)cn2)CC1 [Example 40, 2-[3-[4-(2-fluoroethyl)pyrazol-1-yl]-1-[2-[[1-[2-(4-methylpiperazin-1-yl)-2-oxo-ethyl]pyrazol-4-yl]amino]-[1,2,4]triazolo[1,5-a]pyridin-8-yl]azetidin-3-yl]acetonitrile] | 18 |
| 0.5 | 0.8 | N#CCC1(n2cc(C(F)(F)F)cn2)CN(c2cccn3nc(Nc4cnn(CC(=O)N5CCN(C6COC6)CC5)c4)nc23)C1 [Example 97, 2-[1-[2-[[1-[2-[4-(oxetan-3-yl)piperazin-1-yl]-2-oxo-ethyl]pyrazol-4-yl]amino]-[1,2,4]triazolo[1,5-a]pyridin-8-yl]-3-[4-(trifluoromethyl)pyrazol-1-yl]azetidin-3-yl]acetonitrile] | 51 |
| 0.4 | 0.7 | N#CCC1(c2cccc(Cl)c2)CN(c2cccn3nc(Nc4cnn(CC(=O)N5CCC(NC6COC6)CC5)c4)nc23)C1 [Example 93, 2-[3-(3-chlorophenyl)-1-[2-[[1-[2-[4-(oxetan-3-ylamino)-1-piperidyl]-2-oxo-ethyl]pyrazol-4-yl]amino]-[1,2,4]triazolo[1,5-a]pyridin-8-yl]azetidin-3-yl]acetonitrile] | 79 |
| 0.8 | 6.1 | Cc1nn(C2(CC#N)CN(c3cccn4nc(Nc5cnn(CC(=O)N6CCN(C)CC6)c5)nc34)C2)cc1C1CCCCC1 [Example 120, 2-[3-(4-cyclohexyl-3-methyl-pyrazol-1-yl)-1-[2-[[1-[2-(4-methylpiperazin-1-yl)-2-oxo-ethyl]pyrazol-4-yl]amino]-[1,2,4]triazolo[1,5-a]pyridin-8-yl]azetidin-3-yl]acetonitrile] | 46 |
| 0.2 | 0.2 | CCc1cnn(C2(CC#N)CN(c3cccn4nc(Nc5ccc(C(=O)N6CC7(CCN(C8COC8)CC7)C6)cc5)nc34)C2)c1 [Example 86, 2-[3-(4-ethylpyrazol-1-yl)-1-[2-[4-[7-(oxetan-3-yl)-2,7-diazaspiro[3.5]nonane-2-carbonyl]anilino]-[1,2,4]triazolo[1,5-a]pyridin-8-yl]azetidin-3-yl]acetonitrile] | 11 |
